The record followed here is patent publication US8937167B2 (Washington University, priority 2009, dated 2015).

Where two headings read alike, the source gives them in different places.

The target in this experiment is FimH (Escherichia coli, UniProt Q1R2J4). The following applies: for HAI Titer EC>50: Table 21, ZFH/JWJ codes.
[1] abbreviates: Table 18, Examples 30-36 numbering.
Setting [2] is: Table 19, Examples 30-36 numbering.
[3] abbreviates: read-out: HA 50% titer EC90, Table 12, Example 6 numbering.
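Further: hemagglutination inhibition of guinea pig erythrocytes agglutinated by type 1 piliated uropathogenic E. coli via FimH mannose binding, quantified through serial dilutions of compound.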

Experimental: In some embodiments, activity of the compound is measured using hemmagglutination titer of guinea pig red blood cells. Hemagglutination of guinea pig red blood cells by type1 piliated UPEC is dependent upon FimH mannose binding ability and serial dilutions allow a quantitative analysis.
Biological activity against FimH was evaluated using a guinea pig red blood cell-based hemagglutination (HA) assay (ref) in which the concentration of the mannoside on reducing agglutination by 50% was used as the primary endpoint (50% HA titer).
Hemagglutination of guinea pig red blood cells by type1 piliated UPEC is dependent upon FimH mannose binding ability. Serial dilutions allow a quantitative analysis using this assay.
Hemagglutination assays for mannose-sensitive agglutination of guinea pig red blood cells were performed as previously described.

`COC(=O)c1cccc(-c2ccc(O[C@H]3O[C@H](CO)[C@@H](O)[C@H](O)[C@@H]3O)c(F)c2)c1` [Compound 4a, Methyl 3-[3-fluoro-4-[(2R,3S,4S,5S,6R)-3,4,5-trihydroxy-6-(hydroxymethyl)tetrahydropyran-2-yl]oxy-phenyl]benzoate]: under “Table 17, Examples 30-36 numbering”, the “HAI Titer EC>90” value is 0.75 µM. As to `CNC(=O)c1cccc(-c2ccc([C@@H](O)C3OC(CO)C(O)C(O)C3O)cc2)c1` (stereo partly shown) [Compound 5ZFH38], the “HAI Titer EC>50” value was 0.250 µM.

With `CNC(=O)c1cccc(-c2ccc([C@H](O)C3OC(CO)C(O)C(O)C3O)cc2)c1` (stereo partly shown) [Compound 5ZFH48], the “HAI Titer EC>50” value was found to be 24.000 µM. For `CNC(=O)c1cccc(-c2ccc(CC3OC(CO)C(O)C(O)C3O)cc2)c1` (stereo not shown) [Compound 5ZFH49], the “HAI Titer EC>50” value was found to be 1.000 µM. Same read-out and setting: in the case of `OCC1OC(Oc2ccc(-c3cccc4cnccc34)cc2)C(O)C(O)C1O` (stereo not shown) [Compound 5ZFH61] it was 0.250 µM. In the case of `O=c1[nH]ccc2ccc(-c3ccc(OC4OC(CO)C(O)C(O)C4O)cc3)cc12` (stereo not shown) [Compound 5ZFH63], the “HAI Titer EC>50” value was found to be 0.100 µM. Consider `O=C(NCCO)c1cccc(-c2ccc(O[C@H]3O[C@H](CO)[C@@H](O)[C@H](O)[C@@H]3O)cc2)c1` [Compound 10a, N-(2-Hydroxyethyl)-3-[4-[(2R,3S,4S,5S,6R)-3,4,5-trihydroxy-6-(hydroxymethyl)tetrahydropyran-2-yl]oxyphenyl]benzamide], for which the “HAI Titer EC>90” value under setting [1] came out at 0.50 µM. Consider `NCCNC(=O)c1cccc(-c2ccc(O[C@H]3O[C@H](CO)[C@@H](O)[C@H](O)[C@@H]3O)cc2)c1` [Compound 10b, N-(2-Aminoethyl)-3-[4-[(2R,3S,4S,5S,6R)-3,4,5-trihydroxy-6-(hydroxymethyl)tetrahydropyran-2-yl]oxyphenyl]benzamide], for which the “HAI Titer EC>90” value under setting [1] stood at 3.0 µM. Also, the “fold drop in HAI activity” value (relative to methyl amide 2) is reported as 6 fold. Turning to `O=C(Nc1ccncc1)c1cccc(-c2ccc(O[C@H]3O[C@H](CO)[C@@H](O)[C@H](O)[C@@H]3O)cc2)c1` [Compound 10e, N-(4-Pyridyl)-3-[4-[(2R,3S,4S,5S,6R)-3,4,5-trihydroxy-6-(hydroxymethyl)tetrahydropyran-2-yl]oxyphenyl]benzamide], under setting [1], the “HAI Titer EC>90” value came out at 0.25 µM. For the compound `COC(=O)c1cncc(-c2ccc(O[C@H]3O[C@H](CO)[C@@H](O)[C@H](O)[C@@H]3O)cc2)c1` [Compound 12b, Methyl 5-[4-[(2R,3S,4S,5S,6R)-3,4,5-trihydroxy-6-(hydroxymethyl)tetrahydropyran-2-yl]oxyphenyl]pyridine-3-carboxylate], the “HAI Titer EC>90” value under setting [2] came out at 0.19 µM. The same measure, in the same setting: in the case of `COC(=O)c1ccc(-c2ccc(O[C@H]3O[C@H](CO)[C@@H](O)[C@H](O)[C@@H]3O)cc2)s1` [Compound 13b, Methyl 5-[4-[(2R,3S,4S,5S,6R)-3,4,5-trihydroxy-6-(hydroxymethyl)tetrahydropyran-2-yl]oxyphenyl]thiophene-2-carboxylate] it was 1.0 µM; in that of `NC(=O)Nc1csc(-c2ccc(O[C@H]3O[C@H](CO)[C@@H](O)[C@H](O)[C@@H]3O)cc2)c1` [Compound 13c, [5-[4-[(2R,3S,4S,5S,6R)-3,4,5-Trihydroxy-6-(hydroxymethyl)tetrahydropyran-2-yl]oxyphenyl]-3-thienyl]urea], 1.0 µM. Take `COC(=O)c1csc(-c2ccc(O[C@H]3O[C@H](CO)[C@@H](O)[C@H](O)[C@@H]3O)cc2)c1` [Compound 13d]: the “HAI Titer EC>90” value under setting [2] stood at 2.0 µM. A word on the EC90: it is the concentration needed for an effect of 90%. Turning to `OCc1ccccc1-c1ccc(OC2OC(CO)C(O)C(O)C2O)cc1` (stereo not shown) [Compound 14g], the “fold less potent in HA titer” value (ortho 14g relative to meta 14h) is recorded as “over 5 fold”. For the same compound, where the note is “read-out: 50% HA titer, Example 6 numbering”, the EC50 stood at 16 µM. Also, the EC90 under setting [3] came to 16 µM. With `OCc1ccc(-c2ccc(OC3OC(CO)C(O)C(O)C3O)cc2)cc1` (stereo not shown) [Compound 14i], the EC90 under setting [3] is 6 µM.

Consider `CN(C)C(=O)c1cccc(-c2ccc(OC3OC(CO)C(O)C(O)C3O)cc2)c1` (stereo not shown) [JJ-I-93, N,N-dimethyl-3-[4-[3,4,5-trihydroxy-6-(hydroxymethyl)tetrahydropyran-2-yl]oxyphenyl]benzamide], for which the “HAI Titer EC>90” value was determined as 3.000 µM. Consider `COC1OC(CO)C(O)C(O)C1O` (stereo not shown) [Methylaman, reference compound], for which the EC50 (read-out: HA 50% titer, Example 6 numbering) is above 1000 µM. For `O=[N+]([O-])c1ccc(OC2OC(CO)C(O)C(O)C2O)cc1` (stereo not shown) [PNP-mannoside, reference compound], the “HAI Titer EC>90” value was 31.000 µM. In the case of `CCCCO[C@H]1O[C@H](CO)[C@@H](O)[C@H](O)[C@@H]1O` [butyl-α-D-mannoside, reference compound], the EC90 (read-out: HAI Titer EC90) is 125 µM.
